Experimental data: PMC5218480 (PLoS ONE, 2017)

System: MV-4-11 cells
Assay: Gene expression microarray analysis (Affymetrix PrimeView) and GSEA
Format: cell-based, human
Design: RFU PODN (11730768_x_at) / Fold change /veh PODN (11730768_x_at) / RFU LINC00158 (11744669_a_at) / Fold change /veh LINC00158 (11744669_a_at) / RFU DUSP10 (11751237_a_at) / Fold change /veh DUSP10 (11751237_a_at) / RFU ID3 (11757404_x_at) / Fold change /veh ID3 (11757404_x_at) / RFU PLEKHG5 (11737974_s_at) / Fold change /veh PLEKHG5 (11737974_s_at) / RFU LRRC4B (11730491_at) / Fold change /veh LRRC4B (11730491_at) / RFU GIMAP4 (11747438_a_at) / Fold change /veh GIMAP4 (11747438_a_at) / RFU KRT8 (11758183_x_at) / Fold change /veh KRT8 (11758183_x_at) / RFU CNN1 (11734310_a_at) / Fold change /veh CNN1 (11734310_a_at) / RFU VPS37D (11726825_at) / Fold change /veh VPS37D (11726825_at) / RFU C10orf10 (11716522_x_at) / Fold change /veh C10orf10 (11716522_x_at) / RFU KIR2DL2 /// KIR2DL4 /// KIR2DL5A /// KIR2DL5B /// KIR2DS1 /// KIR2DS2 /// KIR2DS3 /// KIR2DS4 /// KIR3DL3 /// KIR3DL3 /// KIR3DS1 (11738374_at) / Fold change /veh KIR2DL2 /// KIR2DL4 /// KIR2DL5A /// KIR2DL5B /// KIR2DS1 /// KIR2DS2 /// KIR2DS3 /// KIR2DS4 /// KIR3DL3 /// KIR3DL3 /// KIR3DS1 (11738374_at) / RFU C1QL1 (11718748_at) / Fold change /veh C1QL1 (11718748_at) / RFU TMPRSS4 (11747572_a_at) / Fold change /veh TMPRSS4 (11747572_a_at) / RFU HAMP (11756126_x_at) / Fold change /veh HAMP (11756126_x_at) / RFU RNFT2 (11725882_a_at) / Fold change /veh RNFT2 (11725882_a_at) / RFU NR4A2 (11747474_a_at) / Fold change /veh NR4A2 (11747474_a_at) / RFU ABCC12 (11746883_a_at) / Fold change /veh ABCC12 (11746883_a_at) / RFU TMEM136 (11760407_x_at) / Fold change /veh TMEM136 (11760407_x_at) / RFU CLDN22 /// WWC2 (11732394_at) / Fold change /veh CLDN22 /// WWC2 (11732394_at) / RFU HLA-DPB1 (11760878_x_at) / Fold change /veh HLA-DPB1 (11760878_x_at) / RFU SPINT1 (11716480_a_at) / Fold change /veh SPINT1 (11716480_a_at) / RFU GAP43 (11754022_s_at) / Fold change /veh GAP43 (11754022_s_at) / RFU A4GNT (11735810_at) / Fold change /veh A4GNT (11735810_at) / RFU PRB3 (11715151_x_at) / Fold change /veh PRB3 (11715151_x_at) / RFU TUBB4B (11761932_at) / Fold change /veh TUBB4B (11761932_at) / RFU CAPN14 (11732068_a_at) / Fold change /veh CAPN14 (11732068_a_at) / RFU TMCC2 (11721928_a_at) / Fold change /veh TMCC2 (11721928_a_at) / RFU IRGQ (11745062_a_at) / Fold change /veh IRGQ (11745062_a_at) / RFU FAM174B (11720279_a_at) / Fold change /veh FAM174B (11720279_a_at) / RFU TMPRSS4 (11748680_a_at) / Fold change /veh TMPRSS4 (11748680_a_at) / RFU FAM212B (11763350_a_at) / Fold change /veh FAM212B (11763350_a_at) / RFU PLEKHG5 (11743358_a_at) / Fold change /veh PLEKHG5 (11743358_a_at) / RFU ZSCAN30 (11745921_a_at) / Fold change /veh ZSCAN30 (11745921_a_at) / RFU CMKLR1 (11741424_a_at) / Fold change /veh CMKLR1 (11741424_a_at) / RFU LOC101060620 /// MAPK8IP1 (11723275_at) / Fold change /veh LOC101060620 /// MAPK8IP1 (11723275_at) / RFU SPTSSB (11747773_x_at) / Fold change /veh SPTSSB (11747773_x_at) / RFU PRSS12 (11739890_at) / Fold change /veh PRSS12 (11739890_at) / RFU BIN1 (11741810_x_at) / Fold change /veh BIN1 (11741810_x_at) / RFU WNT11 (11732464_a_at) / Fold change /veh WNT11 (11732464_a_at) / RFU C10orf10 (11716521_a_at) / Fold change /veh C10orf10 (11716521_a_at) / RFU C5orf56 (11738089_at) / Fold change /veh C5orf56 (11738089_at) / RFU CYB561 (11721691_x_at) / Fold change /veh CYB561 (11721691_x_at) / RFU ANKRD19P (11752326_a_at) / Fold change /veh ANKRD19P (11752326_a_at) / RFU OR2T12 /// OR2T33 /// OR2T8 (11738714_s_at) / Fold change /veh OR2T12 /// OR2T33 /// OR2T8 (11738714_s_at) / RFU VCAN (11748164_a_at) / Fold change /veh VCAN (11748164_a_at) / RFU JSRP1 (11732532_at) / Fold change /veh JSRP1 (11732532_at) / RFU KRTAP10-11 (11738290_x_at) / Fold change /veh KRTAP10-11 (11738290_x_at) / RFU MYO3A (11730013_a_at) / Fold change /veh MYO3A (11730013_a_at) / RFU EBF3 (11725865_a_at) / Fold change /veh EBF3 (11725865_a_at) / RFU CAMK2N1 (11719241_x_at) / Fold change /veh CAMK2N1 (11719241_x_at) / RFU C5orf56 (11738088_a_at) / Fold change /veh C5orf56 (11738088_a_at) / RFU OLFML3 (11715873_a_at) / Fold change /veh OLFML3 (11715873_a_at) / RFU LOC100653217 /// NTM (11731650_a_at) / Fold change /veh LOC100653217 /// NTM (11731650_a_at) / RFU MAPK11 (11762145_a_at) / Fold change /veh MAPK11 (11762145_a_at) / RFU FIZ1 (11724087_x_at) / Fold change /veh FIZ1 (11724087_x_at) / RFU OASL (11726364_x_at) / Fold change /veh OASL (11726364_x_at) / RFU SOX15 (11748057_x_at) / Fold change /veh SOX15 (11748057_x_at) / RFU CD79A (11719716_a_at) / Fold change /veh CD79A (11719716_a_at) / RFU HIST1H1D (11736915_at) / Fold change /veh HIST1H1D (11736915_at) / RFU CASKIN2 (11723855_a_at) / Fold change /veh CASKIN2 (11723855_a_at) / RFU LOC730098 (11760151_x_at) / Fold change /veh LOC730098 (11760151_x_at) / RFU OR4N2 (11742367_at) / Fold change /veh OR4N2 (11742367_at) / RFU PRRT2 (11749266_a_at) / Fold change /veh PRRT2 (11749266_a_at) / RFU SNX32 (11753110_a_at) / Fold change /veh SNX32 (11753110_a_at) / RFU CDHR5 (11726645_a_at) / Fold change /veh CDHR5 (11726645_a_at) / RFU RCAN1 (11760418_a_at) / Fold change /veh RCAN1 (11760418_a_at) / RFU FAM167A (11723789_a_at) / Fold change /veh FAM167A (11723789_a_at) / RFU FAM26E (11764081_at) / Fold change /veh FAM26E (11764081_at) / RFU ISYNA1 (11749810_s_at) / Fold change /veh ISYNA1 (11749810_s_at) / RFU ACY1 (11761880_at) / Fold change /veh ACY1 (11761880_at) / RFU 11764098_at / Fold change /veh 11764098_at / RFU SAMD14 (11745864_x_at) / Fold change /veh SAMD14 (11745864_x_at) / RFU NPB (11741838_a_at) / Fold change /veh NPB (11741838_a_at) / RFU TMPRSS6 (11731388_a_at) / Fold change /veh TMPRSS6 (11731388_a_at) / RFU KRTAP10-2 (11738614_at) / Fold change /veh KRTAP10-2 (11738614_at) / RFU ARHGAP8 /// PRR5-ARHGAP8 (11727945_x_at) / Fold change /veh ARHGAP8 /// PRR5-ARHGAP8 (11727945_x_at) / RFU KRTAP5-7 /// NADSYN1 (11734609_at) / Fold change /veh KRTAP5-7 /// NADSYN1 (11734609_at) / RFU RASL12 (11751679_a_at) / Fold change /veh RASL12 (11751679_a_at) / RFU CDKN2B (11736163_a_at) / Fold change /veh CDKN2B (11736163_a_at) / RFU PRF1 (11729649_at) / Fold change /veh PRF1 (11729649_at) / RFU, ZNF638 /// ZNF638-IT1 / Fold change vs veh, ZNF638 /// ZNF638-IT1 / RFU, PANK3 / Fold change vs veh, PANK3 / RFU, SH3YL1 / Fold change vs veh, SH3YL1 / RFU, ZEB2 / Fold change vs veh, ZEB2 / RFU, NRIP1 / Fold change vs veh, NRIP1 / RFU, PTTG1IP / Fold change vs veh, PTTG1IP / RFU, CAPN2 / Fold change vs veh, CAPN2 / RFU, MED14 / Fold change vs veh, MED14 / RFU, SNORA58 / Fold change vs veh, SNORA58 / RFU, C1orf63 / Fold change vs veh, C1orf63 / RFU, LRRFIP1 / Fold change vs veh, LRRFIP1 / RFU, NDUFAF7 / Fold change vs veh, NDUFAF7 / RFU, SLC12A2 / Fold change vs veh, SLC12A2 / RFU, IBTK / Fold change vs veh, IBTK / RFU, ESF1 / Fold change vs veh, ESF1 / Fold change vs veh, TMEM50B / RFU, TAOK1 / Fold change vs veh, TAOK1 / RFU, ACBD3 / Fold change vs veh, ACBD3 / RFU, TMA16 / Fold change vs veh, TMA16 / RFU, RWDD3 / Fold change vs veh, RWDD3 / RFU, BCAT1 / Fold change vs veh, BCAT1 / RFU, EDEM3 / Fold change vs veh, EDEM3 / RFU, TMEM33 / Fold change vs veh, TMEM33 / RFU, WDR75 / Fold change vs veh, WDR75 / RFU, AHCTF1 / Fold change vs veh, AHCTF1 / RFU, TFRC / Fold change vs veh, TFRC / RFU, ZDHHC17 / Fold change vs veh, ZDHHC17 / RFU, NOM1 / Fold change vs veh, NOM1 / RFU, ARL8B / Fold change vs veh, ARL8B / RFU, ZBTB11 / Fold change vs veh, ZBTB11 / RFU, TAMM41 / Fold change vs veh, TAMM41 / RFU, KIAA1704 /// LOC100996395 / Fold change vs veh, KIAA1704 /// LOC100996395 / RFU, ING1 / Fold change vs veh, ING1 / RFU, TRMT61B / Fold change vs veh, TRMT61B / RFU, FUBP3 / Fold change vs veh, FUBP3 / RFU, TP53 / Fold change vs veh, TP53 / RFU, TNKS2 / Fold change vs veh, TNKS2 / RFU, ZFP14 / Fold change vs veh, ZFP14 / RFU, ACTR2 / Fold change vs veh, ACTR2 / RFU, PPP3R1 / Fold change vs veh, PPP3R1 / RFU, PIK3R1 / Fold change vs veh, PIK3R1 / RFU, HNRNPA1 / Fold change vs veh, HNRNPA1 / RFU, RNF170 / Fold change vs veh, RNF170 / RFU, ZNF28 / Fold change vs veh, ZNF28 / RFU, RNGTT / Fold change vs veh, RNGTT / RFU, OGT / Fold change vs veh, OGT / RFU, BRD1 / Fold change vs veh, BRD1 / RFU, MARS / Fold change vs veh, MARS / RFU, ZNF655 / Fold change vs veh, ZNF655 / RFU, FAHD1 / Fold change vs veh, FAHD1 / RFU, BDP1 / Fold change vs veh, BDP1 / RFU, LRRCC1 / Fold change vs veh, LRRCC1 / RFU, ARID1A / Fold change vs veh, ARID1A / RFU, ZNF146 / Fold change vs veh, ZNF146 / RFU, ZNF330 / Fold change vs veh, ZNF330 / RFU, GPN3 / Fold change vs veh, GPN3 / RFU, C9orf123 / Fold change vs veh, C9orf123 / RFU, N4BP2L2 / Fold change vs veh, N4BP2L2 / RFU, ARFIP1 / Fold change vs veh, ARFIP1 / RFU, FAM179B / Fold change vs veh, FAM179B / RFU, BCL10 / Fold change vs veh, BCL10 / RFU, UHRF1BP1L / Fold change vs veh, UHRF1BP1L / RFU, BET1 / Fold change vs veh, BET1 / RFU, CNOT2 / Fold change vs veh, CNOT2 / RFU, ZNF268 / Fold change vs veh, ZNF268 / Fold change vs veh, ZNF507 / RFU, DGCR2 / Fold change vs veh, DGCR2 / RFU, WDSUB1 / Fold change vs veh, WDSUB1 / Fold change vs veh, HSP90B1 /// MIR3652 / RFU, ADSS / Fold change vs veh, ADSS / RFU, GK / Fold change vs veh, GK / RFU, ZNF148 / Fold change vs veh, ZNF148 / RFU, TAF9 / Fold change vs veh, TAF9 / RFU, SLC1A5 / Fold change vs veh, SLC1A5 / RFU, SLMO2 / Fold change vs veh, SLMO2 / RFU, ABCC4 / Fold change vs veh, ABCC4 / RFU, LOC101060439 /// RAP1B / Fold change vs veh, LOC101060439 /// RAP1B / RFU, RFX7 / Fold change vs veh, RFX7 / RFU, GTPBP10 / Fold change vs veh, GTPBP10 / RFU, CNEP1R1 / Fold change vs veh, CNEP1R1 / RFU, BIVM-ERCC5 /// ERCC5 / Fold change vs veh, BIVM-ERCC5 /// ERCC5 / RFU, ILF3 / Fold change vs veh, ILF3 / RFU 11762660_at / Fold change /veh 11762660_at / RFU VCAN (11757783_s_at) / Fold change /veh VCAN (11757783_s_at) / RFU DDX43 (11728927_at) / Fold change /veh DDX43 (11728927_at) / RFU KRT8 (11758188_x_at) / Fold change /veh KRT8 (11758188_x_at) / RFU NKD1 (11759106_at) / Fold change /veh NKD1 (11759106_at) / RFU SRD5A1 (11742802_a_at) / Fold change /veh SRD5A1 (11742802_a_at) / RFU TPSAB1 /// TPSB2 (11721975_s_at) / Fold change /veh TPSAB1 /// TPSB2 (11721975_s_at) / RFU GSTM3 (11746129_a_at) / Fold change /veh GSTM3 (11746129_a_at) / RFU IL23R (11737362_x_at) / Fold change /veh IL23R (11737362_x_at) / RFU TMEM51 (11727254_a_at) / Fold change /veh TMEM51 (11727254_a_at) / RFU PIWIL2 (11732686_x_at) / Fold change /veh PIWIL2 (11732686_x_at) / RFU ORM1 (11744905_x_at) / Fold change /veh ORM1 (11744905_x_at) / RFU CCDC152 (11743942_at) / Fold change /veh CCDC152 (11743942_at) / RFU ECM1 (11717891_a_at) / Fold change /veh ECM1 (11717891_a_at) / RFU IL23R (11748794_a_at) / Fold change /veh IL23R (11748794_a_at) / RFU TNFAIP8L3 (11732012_x_at) / Fold change /veh TNFAIP8L3 (11732012_x_at) / RFU MBOAT4 (11741988_at) / Fold change /veh MBOAT4 (11741988_at) / RFU 11764193_at / Fold change /veh 11764193_at / RFU TMEM53 (11763286_at) / Fold change /veh TMEM53 (11763286_at) / RFU MAGEB2 (11727129_at) / Fold change /veh MAGEB2 (11727129_at) / RFU TMEM200A (11744735_a_at) / Fold change /veh TMEM200A (11744735_a_at) / RFU CCDC152 (11751479_a_at) / Fold change /veh CCDC152 (11751479_a_at) / RFU FAM211A (11726209_a_at) / Fold change /veh FAM211A (11726209_a_at) / RFU RGS16 (11746705_a_at) / Fold change /veh RGS16 (11746705_a_at) / RFU VCAN (11755009_s_at) / Fold change /veh VCAN (11755009_s_at) / RFU RHOB (11743442_s_at) / Fold change /veh RHOB (11743442_s_at) / RFU RGS16 (11720943_a_at) / Fold change /veh RGS16 (11720943_a_at) / RFU RGS16 (11720944_at) / Fold change /veh RGS16 (11720944_at) / RFU, VPS4B / Fold change vs veh, VPS4B / RFU, CREB1 / Fold change vs veh, CREB1 / RFU, DNAJC13 / Fold change vs veh, DNAJC13 / RFU, GNAQ / Fold change vs veh, GNAQ / RFU, CDK5R1 / Fold change vs veh, CDK5R1 / RFU, ZRANB3 / Fold change vs veh, ZRANB3 / RFU, CUL4A / Fold change vs veh, CUL4A / RFU, CCNY / Fold change vs veh, CCNY / RFU, UFL1 / Fold change vs veh, UFL1 / RFU, COG3 / Fold change vs veh, COG3 / RFU, DIAPH2 / Fold change vs veh, DIAPH2 / RFU, SKA2 / Fold change vs veh, SKA2 / RFU, AFF3 / Fold change vs veh, AFF3 / RFU, LMF1 / Fold change vs veh, LMF1 / RFU, IPO11 / Fold change vs veh, IPO11 / RFU, DFFB / Fold change vs veh, DFFB / RFU, FOXP1 / Fold change vs veh, FOXP1 / RFU, CARD8 / Fold change vs veh, CARD8 / RFU, STRN3 / Fold change vs veh, STRN3 / RFU, ADK / Fold change vs veh, ADK / RFU, RASSF2 / Fold change vs veh, RASSF2 / RFU, WIPF1 / Fold change vs veh, WIPF1 / RFU, LARP1B / Fold change vs veh, LARP1B / RFU, RASA1 / Fold change vs veh, RASA1 / RFU, RB1 / Fold change vs veh, RB1 / RFU, PPFIA1 / Fold change vs veh, PPFIA1 / RFU, MAT2A / Fold change vs veh, MAT2A / RFU, CCT5 / Fold change vs veh, CCT5 / RFU, WDR92 / Fold change vs veh, WDR92 / RFU, CUX1 / Fold change vs veh, CUX1 / RFU, TTC7A / Fold change vs veh, TTC7A / RFU, TMEM135 / Fold change vs veh, TMEM135 / RFU, DEPTOR / Fold change vs veh, DEPTOR / RFU, CPM / Fold change vs veh, CPM / RFU, DNAJB6 / Fold change vs veh, DNAJB6 / RFU, CACNA2D3 / Fold change vs veh, CACNA2D3 / RFU, DTX4 / Fold change vs veh, DTX4 / RFU, TFCP2 / Fold change vs veh, TFCP2 / RFU, GMCL1 /// GMCL1P1 / Fold change vs veh, GMCL1 /// GMCL1P1 / RFU, AEBP2 / Fold change vs veh, AEBP2 / RFU, SNHG1 /// SNORD22 /// SNORD25 /// SNORD26 /// SNORD27 /// SNORD28 /// SNORD29 /// SNORD31 / Fold change vs veh, SNHG1 /// SNORD22 /// SNORD25 /// SNORD26 /// SNORD27 /// SNORD28 /// SNORD29 /// SNORD31 / Fold change (Aza/veh), C12orf56 (ProbeSet 11735607_a_at) / Fold change (ACY-1035/veh), C12orf56 (ProbeSet 11735607_a_at) / Fold change (Aza/veh), FGFR1OP (ProbeSet 11751329_s_at) / Fold change (ACY-1035/veh), FGFR1OP (ProbeSet 11751329_s_at) / Fold change (Aza/veh), VPS36 (ProbeSet 11739960_a_at) / Fold change (ACY-1035/veh), VPS36 (ProbeSet 11739960_a_at) / RFU SYPL1 (11715823_x_at) / Fold change /veh SYPL1 (11715823_x_at) / RFU IGFBP7 (11715501_s_at) / Fold change /veh IGFBP7 (11715501_s_at) / RFU REEP3 (11722064_at) / Fold change /veh REEP3 (11722064_at) / RFU IGLL1 (11728026_x_at) / Fold change /veh IGLL1 (11728026_x_at): dose or concentration left out as unconfirmed
Conditions: ProbeSet 11720269_a_at; LIST B

Structure (SMILES): Nc1ccc(-c2cccs2)cc1NC(=O)c1ccc2c(c1)cc(C1CC1)n2CCN1CCOCC1 [ACY-1035]
- RFU, IBTK: 758.00 RFU
